# Values joined by “and” are separate entries in the source; they are usually repeats but may differ in a detail not shown here. Equal values may be shown once.
# Tested on: 415267-285-R-J2-PDC complex spheroid viability
# Test: Anticancer human tumor 415267-285-R-J2-PDC patient-derived breast carcinoma cell line growth inhibition [POLQ]
# Settings: for viability, T/C: stronger effect = lower value
# Experimental: Multicellular complex tumor spheroid response to Polymerase (POL) inhibitors (novobiocin, ART-558, RP6685) in combination with a variety of drugs and investigational agents in selected tumor cell lines
# The POL inhibitors (novobiocin, ART-558, and RP6685) were evaluated both individually and in combination with standard of care and investigational anticancer small molecules within a complex spheroid model of solid tumors. . Complex spheroids include a stromal component modeled by human endothelial cells (HUVEC) and fibroblasts modeled by human mesenchymal stem cells (MSCs). The concentration ranges selected for each drug and investigational agent were based upon clinically achievable concentrations if the clinical Cmax of the agent was known.
# Compounds. The drugs and investigational agents: novobiocin (NSC847541), ART-558 (NSC835418), RP-6685 (NSC848927), peposertib (NSC802822), ceralasertib (NSC780249), elimusertib (NSC800525), camonsertib (NSC841442), AZD-1390 (NSC803789), olaparib (NSC753686), talazoparib (NSC767125), rucaparib (NSC756644), sotorasib (NSC818433), MRTX-1133 (NSC836407), SN-38 (NSC673596), topotecan (NSC609699), epotoside (NSC141540), doxorubicin (NSC123127), gemcitabine (NSC613327), 5-fluorouracil (NSC19893), paclitaxel (NSC125973), vemurafenib (NSC761431), MSA-2 (NSC828583), SN-011 (NSC837082), adavosertib (NSC754352), prexasertib (NSC758257), carboplatin (NSC241240) and oxaliplatin (NSC266046), were obtained from the National Cancer Institute (NCI) Developmental Therapeutics Program Chemical Repository (21). The FDA-approved anticancer drug set is available from the Developmental Therapeutics Program at https://dtp.cancer.gov/organization/dscb/obtaining/. […] The stock solutions were prepared in dimethyl sulfoxide (DMSO, Sigma-Aldrich, St. Louis, MO, cat. D2650), except for the platinum compounds which were prepared in saline (Quality Biological, Gaithersburg, MD, cat. 114-055-101), at 800-fold the tested concentration and stored at -70 degrees C prior to their use. All drugs and investigational agents were tested over a range starting from a high concentration at or near the clinical Cmax and decreasing in half-log increments. If the clinical Cmax for an agent had not been determined, the highest concentration tested was 10 microM, except for SN-38, which was tested at a high concentration of 1 microM.
# Cell Culture. All cells were maintained in an incubator at 37 degrees C and 5% CO2 with 95% humidity. The PDC lines were cultured according to standard operating procedures established by the NCI PDMR (https://pdmr.cancer.gov). Table 3 of the manuscript, lists the cell lines along with the number of the three cell types plated to form the mct-spheroids and media for tumor cell growth. After thawing, all PDC lines, except 997537-175-T-J1-PDC and 415267-285-R-J2-PDC, were cultured in Matrigel-coated flasks prepared with a working solution of 1X Ham's F-12 nutrient mix, without supplementation (Thermo Fisher Scientific, cat. 11765054), 100 U/mL penicillin-streptomycin (Thermo Fisher Scientific, cat. 15140122), and 2.5% Matrigel (Corning Inc., Corning, NY, cat. 354248) for the first three passages. The two PDC lines 997537-175-T-J1-PDC and 415267-285-R-J2-PDC were cultured on uncoated flasks. The 857933-349-R-J2-PDC line was cultured in 6C/Colon 1B media containing advanced DMEM/F-12 (Thermo Fisher Scientific, cat. 12634028), 10 mM HEPES (Thermo Fisher Scientific, cat. 15630080), 1X GlutaMAX supplement (Thermo Fisher Scientific, cat. 35050061), 0.1 mg/mL primocin (InvivoGen, San Diego, CA, cat. ant-pm-2), 10% defined fetal bovine serum, heat inactivated (HyClone Laboratories Inc., Logan, UT, cat. SH30070.03HI), 50% L-WRN conditioned media (ATCC, cat. CRL-3276), 1.25 mM N-Acetyl-L-cysteine (Sigma-Aldrich, cat. A9165), 10 mM nicotinamide (Sigma-Aldrich, cat. N0636), 1X B-27 supplement (Thermo Fisher Scientific, cat. 17504044), 1X N-2 supplement (Thermo Fisher Scientific, cat. […]
# 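Also: spheroids exposed to compounds for one week before readout.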
# 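For viability, T/C in this document: luminescence used as stand-in measure of viable cells; 100% = DMSO vehicle control viability.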
smiles,measurement,setting,value
C=CCn1c(=O)c2cnc(Nc3ccc(N4CCN(C)CC4)cc3)nc2n1-c1cccc(C(C)(C)O)n1,"viability, T/C",compound 0.00316 µM,93.5% and 109% and 105%
same,"viability, T/C",compound 0.01 µM,94% and 116% and 97.7%
same,"viability, T/C",compound 0.0316 µM,106% and 108% and 97.9%
same,"viability, T/C",compound 0.1 µM,99.5% and 96.9% and 95.5%
same,"viability, T/C",compound 0.316 µM,46.4% and 73.5% and 68.8%
same,"viability, T/C",compound 1 µM,7.6% and 7.2% and 5.6%
same,IC50,curve of compound,292 nM and 471 nM and 446 nM
CCc1cc2c(N3CCc4c(cc(Cn5ccnc5)cc4-c4cn(C)nc4C(F)(F)F)C3=O)ccnc2c(OC)n1 + Nc1ccc(C#CCN(C(=O)Cc2ncc(C(F)(F)F)cc2C(F)(F)F)c2ccc(F)cc2)nn1,IC50,"curve of first compound, second compound 0.0316 µM",> 10000 nM
same,IC50,"curve of first compound, second compound 0.1 µM",> 10000 nM
same,IC50,"curve of first compound, second compound 0.316 µM",> 10000 nM
same,IC50,"curve of first compound, second compound 1 µM",> 10000 nM
same,IC50,"curve of first compound, second compound 3.16 µM",> 10000 nM
same,IC50,"curve of first compound, second compound 10 µM",> 10000 nM
same,"viability, T/C","second compound 0.0316 µM, first compound 0.0316 µM",95.8%
same,"viability, T/C","second compound 0.0316 µM, first compound 0.1 µM",92.1%
same,"viability, T/C","second compound 0.0316 µM, first compound 0.316 µM",78.2%
same,"viability, T/C","second compound 0.0316 µM, first compound 1 µM",87.2%
same,"viability, T/C","second compound 0.0316 µM, first compound 3.16 µM",89.7%
same,"viability, T/C","second compound 0.0316 µM, first compound 10 µM",70.8%
same,"viability, T/C","second compound 0.1 µM, first compound 0.0316 µM",94.3%
same,"viability, T/C","second compound 0.1 µM, first compound 0.1 µM",88.4%
same,"viability, T/C","second compound 0.1 µM, first compound 0.316 µM",79.6%
same,"viability, T/C","second compound 0.1 µM, first compound 1 µM",85.3%
same,"viability, T/C","second compound 0.1 µM, first compound 3.16 µM",92.9%
same,"viability, T/C","second compound 0.1 µM, first compound 10 µM",68.1%
same,"viability, T/C","second compound 0.316 µM, first compound 0.0316 µM",94.2%
same,"viability, T/C","second compound 0.316 µM, first compound 0.1 µM",90.7%
same,"viability, T/C","second compound 0.316 µM, first compound 0.316 µM",75.7%
same,"viability, T/C","second compound 0.316 µM, first compound 1 µM",84.1%
same,"viability, T/C","second compound 0.316 µM, first compound 3.16 µM",86.4%
same,"viability, T/C","second compound 0.316 µM, first compound 10 µM",71.4%
same,"viability, T/C","second compound 1 µM, first compound 0.0316 µM",85.9%
same,"viability, T/C","second compound 1 µM, first compound 0.1 µM",96%
same,"viability, T/C","second compound 1 µM, first compound 0.316 µM",81.8%
same,"viability, T/C","second compound 1 µM, first compound 1 µM",82.1%
same,"viability, T/C","second compound 1 µM, first compound 3.16 µM",87.8%
same,"viability, T/C","second compound 1 µM, first compound 10 µM",70.7%
same,"viability, T/C","second compound 3.16 µM, first compound 0.0316 µM",90.4%
same,"viability, T/C","second compound 3.16 µM, first compound 0.1 µM",87.3%
same,"viability, T/C","second compound 3.16 µM, first compound 0.316 µM",78.8%
same,"viability, T/C","second compound 3.16 µM, first compound 1 µM",88.8%
same,"viability, T/C","second compound 3.16 µM, first compound 3.16 µM",78.2%
same,"viability, T/C","second compound 3.16 µM, first compound 10 µM",73.3%
same,"viability, T/C","second compound 10 µM, first compound 0.0316 µM",94.9%
same,"viability, T/C","second compound 10 µM, first compound 0.1 µM",83.8%
same,"viability, T/C","second compound 10 µM, first compound 0.316 µM",90.4%
same,"viability, T/C","second compound 10 µM, first compound 1 µM",87.9%
same,"viability, T/C","second compound 10 µM, first compound 3.16 µM",77.5%
same,"viability, T/C","second compound 10 µM, first compound 10 µM",68.2%
CC[C@@]1(O)C(=O)OCc2c1cc1n(c2=O)Cc2cc3c(CN(C)C)c(O)ccc3nc2-1,"viability, T/C",compound 0.000316 µM,95.8% and 95.3% and 99.4%
same,"viability, T/C",compound 0.001 µM,113% and 97% and 101%
same,"viability, T/C",compound 0.00316 µM,103% and 108% and 98.3%
same,"viability, T/C",compound 0.01 µM,90.7% and 108% and 86.8%
same,"viability, T/C",compound 0.0316 µM,25.3% and 37.5% and 22.8%
same,"viability, T/C",compound 0.1 µM,7.48% and 7.95% and 7.34%
same,IC50,curve of compound,20.5 nM and 25.3 nM and 19.4 nM

# From PubChem BioAssay AID1963847 (Molecular Pharmacology Branch, DTP, NCI, 2024)
